These results are taken from EPA's ToxValDB 9.5 (doi:10.2903/j.efsa.2010.1705).

In brackets after ≈: the same amount, converted by molar mass.

The subject of data set [1] is Tagia sp.
The test system of data set [2] is Rattus norvegicus. The settings on record: for LD50: acute, mortality; for NOAEL: chronic.
In data set [3] the test system is Oryctolagus sp.
Data set [4] has as its system Canidae. To be noted: chronic, Dog Other.
Data set [5] concerns Colinus virginianus. To be noted: for LD50: acute, mortality.
The subject of data set [6] is Daphnia magna. The settings on record: chronic/long-term; duration: 21 days; reproduction.
In data set [7] the test system is Oncorhynchus mykiss.
Data set [8] relates to Anas platyrhynchos. The settings on record: for LD50: oral.

For orientation: NOAEL means the highest tested level that showed no adverse finding. In turn, `NC(=O)c1c(Cl)cccc1Cl` [2,6-Dichlorobenzamide] registered an NOEC in data set [1] (chronic/long-term, duration: 56 days) of 250 mg/kg. The same compound had an LD50 in data set [2] (oral) of 500 mg/kg-day. Also, the NOAEL in data set [2] worked out at 5.7 mg/kg-day; in data set [2] (oral), 13.5 mg/kg-day; in data set [3] (reproduction developmental, body weight), 30 mg/kg-day; in data set [4] (duration: 2 years) it was 4.5 mg/kg-day. For the same compound, in data set [5] (short-term, oral, diet), the NOEL came out at 876 mg/kg-day.

As to `N#Cc1c(Cl)cccc1Cl` [2,6-Dichlorobenzonitrile], the NOEC in data set [6] stood at 1.2 mg/L; in data set [7] (chronic/long-term, duration: 96 days, growth), 0.66 mg/L. The LC50 in data set [7] (acute, duration: 96 hours, mortality) was 7.2 µg/mL (≈ 41.9 µM); in data set [1] (acute, duration: 14 days, mortality), 270 mg/kg. Besides, the LD50 in data set [2] (oral) is > 2000 mg/kg-day; in data set [8] (acute, unspecified, clinical signs) it was > 50 mg/kg-day; in data set [8] (short-term, feed, mortality), > 470 mg/kg-day; in data set [5] (oral, diet), 598 mg/kg-day; in data set [5] (oral) it was 698 mg/kg-day. In addition, the NOAEL in data set [3] (developmental, development) was 45 mg/kg-day; in data set [4] (duration: 52 weeks, oral, hematological), 1 mg/kg-day. Also, the NOEL in data set [8] (not reported) was 35.5 mg/kg-day; in data set [5] (reproduction developmental), 14.1 mg/kg-day.
